Laboratory results from ChEMBL document CHEMBL4431352, “Structure-activity relationship of Garcinia xanthones analogues: Potent Hsp90 inhibitors with cytotoxicity and antiangiogenesis activity” (Bioorg Med Chem, 2016).
Calls of active or inactive are those of the source. The calls are words filed in the database; no cut-off is given here.

Tests used:
[1] = target: T1, Heat shock protein HSP 90-alpha (Homo sapiens, UniProt P07900); experiment: Inhibition of 6x-His tagged human recombinant full length Hsp90alpha ATPase preincubated for 0.5 hrs followed by ATP addition measured after 30 mins by HTRF assay
[2] = target: T1, Heat shock protein HSP 90-alpha; experiment: Binding affinity to human recombinant full length Hsp90alpha assessed as change in melting temperature at 125 uM by fluorescence assay
[3] = system: SK-BR-3; experiment: Induction of cell morphological changes in human SK-BR-3 cells assessed as cell shrinkage at 0.25 to 1 uM after 48 hrs by DAPI staining-based fluorescence analysis; format: functional
[4] = system: HT-29; experiment: Antiproliferative activity against human HT-29 cells assessed as growth inhibition by MTT assay; format: functional, cell-based
[5] = system: SK-BR-3; experiment: Induction of apoptosis in human SK-BR-3 cells after 48 hrs by annexin V/PI-staining based flow cytometry; format: functional, cell-based
[6] = system: SK-BR-3; experiment: Induction of apoptosis in human SK-BR-3 cells assessed as increase in caspase activity after 48 hrs by fluorimetric assay; format: functional, cell-based
[7] = system: SK-BR-3; experiment: Induction of apoptosis in human SK-BR-3 cells assessed as dead cells at 1 uM after 48 hrs by annexin v/PI-staining based flow cytometry (Rvb =1.3%); format: functional
[8] = system: HepG2; experiment: Antiproliferative activity against human HepG2 cells assessed as growth inhibition by MTT assay; format: functional, cell-based
[9] = system: SK-BR-3; experiment: Induction of apoptosis in human SK-BR-3 cells assessed as late apoptotic cells at 0.5 uM after 48 hrs by annexin v/PI-staining based flow cytometry (reference value: 6.2%); format: functional
[10] = system: SK-BR-3; experiment: Induction of apoptosis in human SK-BR-3 cells assessed as early apoptotic cells at 1 uM after 48 hrs by annexin v/PI-staining based flow cytometry (reference value: 3.3%); format: functional
[11] = system: SK-BR-3; experiment: Induction of apoptosis in human SK-BR-3 cells assessed as live cells at 0.25 uM after 48 hrs by annexin v/PI-staining based flow cytometry (reference value: 89.2%); format: functional
[12] = target: T2, Heat shock protein HSP90 (Homo sapiens) (UniProt P07900+P08238); experiment: Inhibition of Hsp90 in HUVEC assessed as repression of 1% hypoxia-induced Glut1 mRNA expression at 0.1 uM measured over 8 hrs by RT-PCR analysis; format: cell-based
[13] = system: HUVEC; experiment: Antiangiogenic activity against HUVEC assessed as inhibition of VEGF-induced cell migration incubated for 24 hrs by wound healing assay; format: functional, cell-based; details: Homo sapiens
[14] = target: T2, Heat shock protein HSP90 (Homo sapiens); experiment: Inhibition of Hsp90 in human SK-BR-3 cells assessed as downregulation of Akt after 24 hrs by Western blot analysis; format: cell-based
[15] = target: T2, Heat shock protein HSP90 (Homo sapiens); experiment: Inhibition of Hsp90 in HUVEC assessed as repression of 1% hypoxia-induced […] mRNA expression at 0.1 uM measured over 8 hrs by RT-PCR analysis; format: cell-based
[16] = target: T2, Heat shock protein HSP90 (Homo sapiens); experiment: Inhibition of Hsp90 in human SK-BR-3 cells assessed as upregulation of Hsp70 at 0.02 to 0.2 uM after 24 hrs by Western blot analysis; format: cell-based
[17] = system: SK-BR-3; experiment: Induction of apoptosis in human SK-BR-3 cells assessed as live cells after 48 hrs by annexin v/PI-staining based flow cytometry (reference value: 89.2%); format: functional, cell-based
[18] = target: T1, Heat shock protein HSP 90-alpha; experiment: Binding affinity to human recombinant full length biotinylated Hsp90alpha assessed as equilibrium dissociation constants by biolayer interferometric analysis
[19] = target: T2, Heat shock protein HSP90 (Homo sapiens); experiment: Inhibition of Hsp90 in HUVEC assessed as downregulation of 1% hypoxia-induced HIF-1alpha expression measured over 8 hrs by Western blot analysis; format: cell-based
[20] = system: SK-BR-3; experiment: Induction of cell morphological changes in human SK-BR-3 cells assessed as cell distortion at 0.25 to 1 uM after 48 hrs by DAPI staining-based fluorescence analysis; format: functional
[21] = system: SK-BR-3; experiment: Induction of apoptosis in human SK-BR-3 cells assessed as dead cells at 0.25 uM after 48 hrs by annexin v/PI-staining based flow cytometry (Rvb =1.3%); format: functional
[22] = system: SK-BR-3; experiment: Induction of apoptosis in human SK-BR-3 cells assessed as live cells at 0.5 uM after 48 hrs by annexin v/PI-staining based flow cytometry (reference value: 89.2%); format: functional
[23] = system: SK-BR-3; experiment: Induction of apoptosis in human SK-BR-3 cells assessed as dead cells at 0.5 uM after 48 hrs by annexin v/PI-staining based flow cytometry (Rvb =1.3%); format: functional
[24] = system: SK-BR-3; experiment: Induction of apoptosis in human SK-BR-3 cells assessed as early apoptotic cells at 0.25 uM after 48 hrs by annexin v/PI-staining based flow cytometry (reference value: 3.3%); format: functional
[25] = target: T2, Heat shock protein HSP90 (Homo sapiens); experiment: Inhibition of Hsp90 in HUVEC assessed as repression of 1% hypoxia-induced VEGF mRNA expression at 0.1 uM measured over 8 hrs by RT-PCR analysis; format: cell-based
[26] = system: SK-BR-3; experiment: Induction of apoptosis in human SK-BR-3 cells assessed as nuclear condensation at 0.25 to 1 uM after 48 hrs by DAPI staining-based fluorescence analysis; format: functional, cell-based
[27] = target: T2, Heat shock protein HSP90 (Homo sapiens); experiment: Inhibition of Hsp90 in human SK-BR-3 cells assessed as downregulation of ERK1/2 after 24 hrs by Western blot analysis; format: cell-based
[28] = system: SK-BR-3; experiment: Induction of apoptosis in human SK-BR-3 cells assessed as early apoptotic cells at 0.5 uM after 48 hrs by annexin v/PI-staining based flow cytometry (reference value: 3.3%); format: functional
[29] = system: HUVEC; experiment: Antiangiogenic activity against inactivated HUVEC assessed as inhibition of tube formation at 0.25 uM incubated for 6 hrs by matrigel assay; format: functional, cell-based; details: Homo sapiens
[30] = system: A549; experiment: Antiproliferative activity against human A549 cells assessed as growth inhibition by MTT assay; format: functional, cell-based
[31] = system: SK-BR-3; experiment: Induction of apoptosis in human SK-BR-3 cells assessed as dead cells after 48 hrs by annexin v/PI-staining based flow cytometry (Rvb =1.3%); format: functional, cell-based
[32] = system: SK-BR-3; experiment: Induction of apoptosis in human SK-BR-3 cells assessed as late apoptotic cells at 0.25 uM after 48 hrs by annexin v/PI-staining based flow cytometry (reference value: 6.2%); format: functional
[33] = target: T1, Heat shock protein HSP 90-alpha; experiment: Binding affinity to human recombinant full length Hsp90alpha assessed as change in melting temperature at 1 mM by fluorescence assay
[34] = target: T1, Heat shock protein HSP 90-alpha; experiment: Binding affinity to human recombinant full length Hsp90alpha assessed as change in melting temperature at 500 uM by fluorescence assay
[35] = system: MCF7; experiment: Antiproliferative activity against human MCF7 cells assessed as growth inhibition by MTT assay; format: functional, cell-based
[36] = system: SK-BR-3; experiment: Induction of apoptosis in human SK-BR-3 cells assessed as late apoptotic cells after 48 hrs by annexin v/PI-staining based flow cytometry (reference value: 6.2%); format: functional, cell-based
[37] = system: SK-BR-3; experiment: Induction of cell morphological changes in human SK-BR-3 cells assessed as cell membrane blebbing at 0.25 to 1 uM after 48 hrs by DAPI staining-based fluorescence analysis; format: functional
[38] = system: SK-BR-3; experiment: Induction of apoptosis in human SK-BR-3 cells assessed as live cells at 1 uM after 48 hrs by annexin v/PI-staining based flow cytometry (reference value: 89.2%); format: functional
[39] = system: PC-3; experiment: Antiproliferative activity against human PC3 cells assessed as growth inhibition by MTT assay; format: functional, cell-based
[40] = system: SK-BR-3; experiment: Induction of apoptosis in human SK-BR-3 cells assessed as early apoptotic cells after 48 hrs by annexin v/PI-staining based flow cytometry (reference value: 3.3%); format: functional, cell-based
[41] = target: T1, Heat shock protein HSP 90-alpha; experiment: Binding affinity to human recombinant full length Hsp90alpha assessed as change in melting temperature at 250 uM by fluorescence assay
[42] = system: SK-BR-3; experiment: Induction of apoptosis in human SK-BR-3 cells assessed as late apoptotic cells at 1 uM after 48 hrs by annexin v/PI-staining based flow cytometry (reference value: 6.2%); format: functional
[43] = system: SK-BR-3; experiment: Induction of apoptosis in human SK-BR-3 cells assessed as apoptotic body formation at 0.25 to 1 uM after 48 hrs by DAPI staining-based fluorescence analysis; format: functional, cell-based
[44] = system: SK-BR-3; experiment: Antiproliferative activity against human SK-BR-3 cells assessed as growth inhibition by MTT assay; format: functional, cell-based

C/C(=C\CC12OC(C)(C)C3CC(C=C4C(=O)c5c(O)cccc5OC431)C2=O)CCl (stereo unspecified)
IC50 [1]: 15.3 µM

C/C(=C\CC12OCC3CC(C=C4C(=O)c5c(O)cccc5OC431)C2=O)CO (stereo unspecified)
ΔTm [2]: 0.95 °C | Activity [3]: Active | IC50 [4]: 3.02 µM | Activity [5]: Dose-dependent effect | Activity [6]: Dose-dependent effect | Activity [7]: 5.7% | IC50 [8]: 3.34 µM | Activity [9]: 21.45% | Activity [10]: 8.6% | Activity [11]: 78.15% | inhibition [12]: Active | Activity [13]: Dose-dependent effect | inhibition [14]: Dose-dependent effect | inhibition [15]: Active | inhibition [16]: inactive | Activity [17]: Dose-dependent effect | Kd [18]: 38 µM | inhibition [19]: Dose-dependent effect | Activity [20]: Active | Activity [21]: 0.95% | Activity [22]: 59.58% | Activity [23]: 2.35% | Activity [24]: 7.5% | inhibition [25]: Active | Activity [26]: Active | inhibition [27]: Dose-dependent effect | Activity [28]: 16.65% | inhibition [29]: Active | IC50 [30]: 3.25 µM | Activity [31]: Dose-dependent effect | Activity [32]: 13.4% | ΔTm [33]: 4.7 °C | ΔTm [34]: 2.12 °C | IC50 [35]: 2.89 µM | Activity [36]: Dose-dependent effect | Activity [37]: Active | Activity [38]: 50% | IC50 [39]: 2.16 µM | IC50 [1]: 3.68 µM | Activity [40]: Dose-dependent effect | ΔTm [41]: 1.64 °C | Activity [42]: 35.7% | Activity [43]: Active | IC50 [44]: 1.92 µM

CC(=O)Oc1cccc2c1C(=O)C1=CC3CC4C(C)(C)OC(CC=C(C)C)(C3=O)C14O2 (stereo unspecified)
IC50 [1]: 42.4 µM

CC(C)=CCC12OC(C)(C)C3CC(C=C4C(=O)c5c(OCC(=O)O)cccc5OC431)C2=O (stereo unspecified)
IC50 [1]: > 100 µM

CC(C)=CCC12OCC3CC(C=C4C(=O)c5c(cccc5OS(C)(=O)=O)OC431)C2=O (stereo unspecified)
IC50 [1]: 13.6 µM

C/C(=C\CC12OC(C)(C)C3CC(C=C4C(=O)c5c(O)cccc5OC431)C2=O)CC=O (stereo unspecified)
IC50 [1]: 22.6 µM

CC(C)=CCC[C@]1(C)C=Cc2c(O)c3c(c(CC=C(C)C)c2O1)O[C@]12C(=C[C@@H]4C[C@H]1C(C)(C)O[C@@]2(C/C=C(/C)C(=O)O)C4=O)C3=O [GAMBOGIC ACID]
IC50 [4]: 2.37 µM | IC50 [8]: 2.19 µM | IC50 [30]: 1.2 µM | IC50 [35]: 1.25 µM | IC50 [39]: 1.19 µM | IC50 [1]: 22 µM | IC50 [44]: 0.89 µM

C/C(=C\CC12OC(C)(C)C3CC(C=C4C(=O)c5c(O)cccc5OC431)C2=O)CO (stereo unspecified)
IC50 [1]: 27.3 µM

CC(=O)Oc1cccc2c1C(=O)C1=CC3CC4COC(CC=C(C)C)(C3=O)C14O2 (stereo unspecified)
IC50 [1]: 52.7 µM

CC(C)=CCC12OCC3CC(C=C4C(=O)c5ccccc5OC431)C2=O (stereo unspecified)
IC50 [1]: 35.2 µM

CCOC(=O)COc1cccc2c1C(=O)C1=CC3CC4C(C)(C)OC(CC=C(C)C)(C3=O)C14O2 (stereo unspecified)
IC50 [1]: 89.8 µM

CC(C)=CCC12OC(C)(C)C3CC(C=C4C(=O)c5c(cccc5OS(C)(=O)=O)OC431)C2=O (stereo unspecified)
IC50 [1]: 67.1 µM
